Experimental data taken from ChEMBL document CHEMBL1122903, “Synthesis, in vitro [3H]prazosin displacement, and in vivo activity of 3-aryl-4,5,6,7-tetrahydropyrazolo[4,3-c]pyridines, a new class of antihypertensive agents” (J Med Chem, 1985).

Experiments:
[1] = molecular target: T1, Adrenergic receptor alpha-1 (Rattus norvegicus, UniProt P15823+P23944+P43140); experiment: Ability to displace [3H]prazosin from postsynaptic alpha-1 adrenergic receptor of rat in vitro.; format: protein assay
T1 sequence (P15823 whole entry): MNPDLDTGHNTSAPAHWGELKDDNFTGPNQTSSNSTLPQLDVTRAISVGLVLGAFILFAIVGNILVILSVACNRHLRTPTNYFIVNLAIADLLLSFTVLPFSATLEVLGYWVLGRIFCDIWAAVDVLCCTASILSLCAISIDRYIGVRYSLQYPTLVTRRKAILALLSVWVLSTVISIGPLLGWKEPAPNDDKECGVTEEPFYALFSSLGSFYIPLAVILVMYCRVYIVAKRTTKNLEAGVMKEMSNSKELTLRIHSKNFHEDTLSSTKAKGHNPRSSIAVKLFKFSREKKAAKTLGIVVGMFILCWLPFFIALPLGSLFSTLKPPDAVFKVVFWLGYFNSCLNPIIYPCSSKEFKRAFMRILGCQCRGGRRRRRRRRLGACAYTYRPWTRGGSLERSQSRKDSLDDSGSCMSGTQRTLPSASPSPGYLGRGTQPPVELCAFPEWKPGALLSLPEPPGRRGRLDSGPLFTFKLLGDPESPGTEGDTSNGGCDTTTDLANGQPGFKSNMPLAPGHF
T1 sequence (P23944 whole entry): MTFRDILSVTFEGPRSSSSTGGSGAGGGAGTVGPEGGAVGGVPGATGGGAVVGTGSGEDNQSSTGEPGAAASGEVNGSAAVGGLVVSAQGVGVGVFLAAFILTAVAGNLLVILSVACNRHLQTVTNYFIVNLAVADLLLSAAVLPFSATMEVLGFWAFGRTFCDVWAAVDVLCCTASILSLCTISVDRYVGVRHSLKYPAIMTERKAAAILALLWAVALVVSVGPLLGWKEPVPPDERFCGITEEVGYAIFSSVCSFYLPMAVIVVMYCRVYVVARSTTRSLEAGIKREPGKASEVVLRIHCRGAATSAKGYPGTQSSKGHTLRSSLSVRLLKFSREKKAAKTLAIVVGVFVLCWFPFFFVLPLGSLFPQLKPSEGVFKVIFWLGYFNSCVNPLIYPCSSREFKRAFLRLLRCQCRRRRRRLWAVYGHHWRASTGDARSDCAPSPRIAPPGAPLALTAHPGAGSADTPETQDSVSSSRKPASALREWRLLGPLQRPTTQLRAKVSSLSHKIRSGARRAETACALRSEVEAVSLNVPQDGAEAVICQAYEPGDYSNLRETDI
T1 sequence (P43140 whole entry): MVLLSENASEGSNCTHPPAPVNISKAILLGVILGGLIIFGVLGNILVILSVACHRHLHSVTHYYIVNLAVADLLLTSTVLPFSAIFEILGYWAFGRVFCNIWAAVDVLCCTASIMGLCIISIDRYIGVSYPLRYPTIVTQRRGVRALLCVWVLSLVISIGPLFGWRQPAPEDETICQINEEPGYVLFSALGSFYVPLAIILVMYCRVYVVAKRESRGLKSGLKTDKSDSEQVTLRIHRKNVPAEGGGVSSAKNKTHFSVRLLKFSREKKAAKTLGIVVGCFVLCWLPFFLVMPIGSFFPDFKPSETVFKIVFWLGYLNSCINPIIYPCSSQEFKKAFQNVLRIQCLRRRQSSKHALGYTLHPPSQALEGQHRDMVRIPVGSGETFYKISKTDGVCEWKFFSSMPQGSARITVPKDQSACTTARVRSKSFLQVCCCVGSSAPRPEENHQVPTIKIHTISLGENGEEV

[2] = tested on: Rattus norvegicus; experiment: Antihypertensive activity on spontaneously hypertensive rats, when administered orally at a dose 30 mg/kg; format: functional; details: route oral
[3] = tested on: Canis familiaris; experiment: Heart rate after 6 hours of oral administration in renal hypertensive dogs at dose 1 mg/kg; format: functional, Canis lupus familiaris
[4] = tested on: Canis familiaris; experiment: Heart rate after 6 hours of oral administration in renal hypertensive dogs at dose 2 mg/kg; format: functional, Canis lupus familiaris
[5] = tested on: Canis familiaris; experiment: Heart rate after 8 hours of oral administration in renal hypertensive dogs at dose 0.25 mg/kg; format: functional, Canis lupus familiaris
[6] = tested on: Canis familiaris; experiment: Heart rate after 8 hours of oral administration in renal hypertensive dogs at dose 2 mg/kg; format: functional, Canis lupus familiaris
[7] = tested on: Canis familiaris; experiment: Peak effect after 8 hours on heart rate after 1 days of oral administration in renal hypertensive dogs at dose 0.5 mg/kg; format: functional, Canis lupus familiaris
[8] = tested on: Canis familiaris; experiment: Peak effect after 8 hours on heart rate after 2 day of oral administration in renal hypertensive dogs at dose 0.5 mg/kg; format: functional, Canis lupus familiaris
[9] = tested on: Canis familiaris; experiment: Peak effect after 8 hours on heart rate after 3 days of oral administration in renal hypertensive dogs at dose 0.5 mg/kg; format: functional, Canis lupus familiaris
[10] = tested on: Canis familiaris; experiment: Peak effect after 8 hours on heart rate after 7 days of oral administration in renal hypertensive dogs at dose 0.5 mg/kg; format: functional, Canis lupus familiaris
[11] = tested on: Canis familiaris; experiment: Heart rate after 0 hours of oral administration in renal hypertensive dogs at dose 2 mg/kg; format: functional, Canis lupus familiaris
[12] = tested on: Canis familiaris; experiment: Heart rate after 2 hours of oral administration in renal hypertensive dogs at dose 0.25 mg/kg; format: functional, Canis lupus familiaris
[13] = tested on: Canis familiaris; experiment: Heart rate after 0 hours of oral administration in renal hypertensive dogs at dose 0.25 mg/kg; format: functional, Canis lupus familiaris
[14] = tested on: Canis familiaris; experiment: Heart rate after 0 hours of oral administration in renal hypertensive dogs at dose 1 mg/kg; format: functional, Canis lupus familiaris
[15] = tested on: Canis familiaris; experiment: Systolic blood pressure after 6 hours of oral administration in renal hypertensive dogs at dose 1 mg/kg; format: functional, Canis lupus familiaris
[16] = tested on: Canis familiaris; experiment: Systolic blood pressure after 6 hours of oral administration in renal hypertensive dogs at dose 2 mg/kg; format: functional, Canis lupus familiaris
[17] = tested on: Canis familiaris; experiment: Systolic blood pressure after 8 hours of oral administration in renal hypertensive dogs at dose 0.25 mg/kg; format: functional, Canis lupus familiaris
[18] = tested on: Canis familiaris; experiment: Systolic blood pressure after 8 hours of oral administration in renal hypertensive dogs at dose 1 mg/kg; format: functional, Canis lupus familiaris
[19] = tested on: Canis familiaris; experiment: Systolic blood pressure after 8 hours of oral administration in renal hypertensive dogs at dose 2 mg/kg; format: functional, Canis lupus familiaris
[20] = tested on: Canis familiaris; experiment: Heart rate after 6 hours of oral administration in renal hypertensive dogs at dose 0.25 mg/kg; format: functional, Canis lupus familiaris
[21] = tested on: Canis familiaris; experiment: Heart rate after 2 hours of oral administration in renal hypertensive dogs at dose 1 mg/kg; format: functional, Canis lupus familiaris
[22] = tested on: Canis familiaris; experiment: Heart rate after 2 hours of oral administration in renal hypertensive dogs at dose 2 mg/kg; format: functional, Canis lupus familiaris
[23] = tested on: Canis familiaris; experiment: Heart rate after 4 hours of oral administration in renal hypertensive dogs at dose 0.25 mg/kg; format: functional, Canis lupus familiaris
[24] = tested on: Canis familiaris; experiment: Heart rate after 4 hours of oral administration in renal hypertensive dogs at dose 1 mg/kg; format: functional, Canis lupus familiaris
[25] = tested on: Canis familiaris; experiment: Heart rate after 4 hours of oral administration in renal hypertensive dogs at dose 2 mg/kg; format: functional, Canis lupus familiaris
[26] = tested on: Canis familiaris; experiment: Peak effect after 8 hours on systolic blood pressure after 1 day of oral administration in renal hypertensive dogs at dose 0.5 mg/kg; format: functional, Canis lupus familiaris, Artery
[27] = tested on: Canis familiaris; experiment: Peak effect after 8 hours on systolic blood pressure after 2 days of oral administration in renal hypertensive dogs at dose 0.5 mg/kg; format: functional, Canis lupus familiaris, Artery
[28] = tested on: Canis familiaris; experiment: Peak effect after 8 hours on systolic blood pressure after 7 days of oral administration in renal hypertensive dogs at dose 0.5 mg/kg; format: functional, Canis lupus familiaris, Artery
[29] = tested on: Canis familiaris; experiment: Peak effect after 8 hours systolic blood pressure after 3 days of oral administration in renal hypertensive dogs at dose 0.5 mg/kg; format: functional, Canis lupus familiaris, Artery
[30] = tested on: Canis familiaris; experiment: Systolic blood pressure after 0 hours of oral administration in renal hypertensive dogs at dose 0.25 mg/kg; format: functional, Canis lupus familiaris
[31] = tested on: Canis familiaris; experiment: Systolic blood pressure after 0 hours of oral administration in renal hypertensive dogs at dose 1 mg/kg; format: functional, Canis lupus familiaris
[32] = tested on: Canis familiaris; experiment: Systolic blood pressure after 0 hours of oral administration in renal hypertensive dogs at dose 2 mg/kg; format: functional, Canis lupus familiaris
[33] = tested on: Canis familiaris; experiment: Systolic blood pressure after 2 hours of oral administration in renal hypertensive dogs at dose 0.25 mg/kg; format: functional, Canis lupus familiaris
[34] = tested on: Canis familiaris; experiment: Systolic blood pressure after 2 hours of oral administration in renal hypertensive dogs at dose 1 mg/kg; format: functional, Canis lupus familiaris
[35] = tested on: Canis familiaris; experiment: Systolic blood pressure after 2 hr of oral administration in renal hypertensive dogs at dose 2 mg/kg; format: functional, Canis lupus familiaris
[36] = tested on: Canis familiaris; experiment: Systolic blood pressure after 4 hours of oral administration in renal hypertensive dogs at dose 0.25 mg/kg; format: functional, Canis lupus familiaris
[37] = tested on: Canis familiaris; experiment: Systolic blood pressure after 4 hours of oral administration in renal hypertensive dogs at dose 1 mg/kg (mean +/- SE for 3 animals /dose); format: functional, Canis lupus familiaris
[38] = tested on: Canis familiaris; experiment: Systolic blood pressure after 4 hours of oral administration in renal hypertensive dogs at dose 2 mg/kg; format: functional, Canis lupus familiaris
[39] = tested on: Rattus norvegicus; experiment: Antihypertensive activity on spontaneously hypertensive rats when administered orally at a dose 50 mg/kg.; format: functional; details: route oral
[40] = tested on: Canis familiaris; experiment: Heart rate after 8 hours of oral administration in renal hypertensive dogs at dose 1 mg/kg; format: functional, Canis lupus familiaris
[41] = tested on: Canis familiaris; experiment: Systolic blood pressure after 6 hours of oral administration in renal hypertensive dogs at dose 0.25 mg/kg; format: functional, Canis lupus familiaris

**Q.** With CCn1nc(-c2ccc(F)cc2)c2c1CCN(C)C2.CS(=O)(=O)O as the compound, how does the Ki [1] read?
**A.** 362 nM

**Q.** What about the Delta p [2] of the same compound?
**A.** -37%

**Q.** What does the source list for Cl.Fc1ccc(-c2nn(Cc3ccccc3)c3c2CNCC3)cc1?
**A.** Ki [1]: 14.7 nM; Heart rate [3]: 96 beats min-1; Heart rate [4]: 97 beats min-1; Heart rate [5]: 109 beats min-1; Heart rate [6]: 90 beats min-1; Heart rate [7]: 100 beats min-1; Heart rate [8]: 95 beats min-1; Heart rate [9]: 105 beats min-1; Heart rate [10]: 95 beats min-1; Heart rate [11]: 110 beats min-1; Heart rate [12]: 112 beats min-1; Heart rate [13]: 110 beats min-1; Heart rate [14]: 107 beats min-1; SBP [15]: 165 mmHg; SBP [16]: 155 mmHg; SBP [17]: 190 mmHg; SBP [18]: 165 mmHg; SBP [19]: 156 mmHg; Heart rate [20]: 105 beats min-1; Heart rate [21]: 109 beats min-1; Heart rate [22]: 107 beats min-1; Heart rate [23]: 108 beats min-1; Heart rate [24]: 105 beats min-1; Heart rate [25]: 104 beats min-1; SBP [26]: 160 mmHg; SBP [27]: 155 mmHg; SBP [28]: 155 mmHg; SBP [29]: 160 mmHg; SBP [30]: 200 mmHg; SBP [31]: 200 mmHg; SBP [32]: 203 mmHg; SBP [33]: 202 mmHg; SBP [34]: 198 mmHg; SBP [35]: 183 mmHg; SBP [36]: 200 mmHg; SBP [37]: 172 mmHg; SBP [38]: 165 mmHg; Delta p [39]: -31%; Heart rate [40]: 93 beats min-1; SBP [41]: 188 mmHg
